The target in one assay is T1, human recombinant HDAC6 (Homo sapiens, UniProt Q9UBN7).
T1 construct: purchased Calbiochem 382180
T1 sequence (Q9UBN7 1-1215): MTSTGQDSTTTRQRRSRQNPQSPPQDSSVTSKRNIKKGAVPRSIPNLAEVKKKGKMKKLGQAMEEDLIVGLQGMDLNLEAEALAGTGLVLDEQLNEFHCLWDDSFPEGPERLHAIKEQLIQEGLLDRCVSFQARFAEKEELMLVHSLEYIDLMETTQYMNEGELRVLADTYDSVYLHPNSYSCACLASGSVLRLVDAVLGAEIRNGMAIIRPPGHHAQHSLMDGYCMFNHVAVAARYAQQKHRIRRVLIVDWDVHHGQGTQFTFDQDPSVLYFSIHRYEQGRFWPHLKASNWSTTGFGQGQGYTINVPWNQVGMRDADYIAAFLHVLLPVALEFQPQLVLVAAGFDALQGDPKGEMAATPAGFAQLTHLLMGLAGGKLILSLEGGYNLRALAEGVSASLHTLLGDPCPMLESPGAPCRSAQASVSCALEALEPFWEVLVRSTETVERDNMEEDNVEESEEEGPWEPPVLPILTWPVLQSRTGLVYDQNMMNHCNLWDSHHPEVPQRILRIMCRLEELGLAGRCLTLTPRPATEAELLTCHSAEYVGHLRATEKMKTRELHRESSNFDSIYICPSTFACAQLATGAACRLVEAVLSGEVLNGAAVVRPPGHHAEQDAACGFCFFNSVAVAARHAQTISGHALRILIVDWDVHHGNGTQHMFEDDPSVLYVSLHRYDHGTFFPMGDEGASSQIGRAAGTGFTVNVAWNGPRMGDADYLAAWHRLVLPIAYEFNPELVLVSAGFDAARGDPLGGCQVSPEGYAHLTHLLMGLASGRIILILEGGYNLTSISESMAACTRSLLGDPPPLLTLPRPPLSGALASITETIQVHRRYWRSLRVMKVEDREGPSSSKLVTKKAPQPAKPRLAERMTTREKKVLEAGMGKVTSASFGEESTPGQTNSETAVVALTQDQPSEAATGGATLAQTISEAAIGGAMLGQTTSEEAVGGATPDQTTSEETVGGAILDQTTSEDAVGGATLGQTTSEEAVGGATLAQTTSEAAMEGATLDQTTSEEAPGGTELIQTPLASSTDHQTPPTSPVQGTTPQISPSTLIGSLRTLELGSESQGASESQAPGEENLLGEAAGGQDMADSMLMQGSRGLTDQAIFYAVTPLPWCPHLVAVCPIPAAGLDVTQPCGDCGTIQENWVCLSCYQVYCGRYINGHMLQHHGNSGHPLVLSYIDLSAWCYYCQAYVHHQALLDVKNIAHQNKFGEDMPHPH
The experiment in a line: HDAC6 enzyme activity inhibition (fluorimetric, in vitro). To be noted: samples at 0.1, 1, 10, 100 and 1000 nM. It counts as biochemical. The gist of the method: (§1)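 Recombinant human HDAC1 or HDAC6 (0.3 μg) with Fluor de Lys-SIRT1 substrate at […], 60 min at 37 °C, then developer 30 min; fluorescence Ex 360/Em 460. Compounds at 100–10000 nM for HDAC1 and 0.1–1000 nM for HDAC6; IC50 calculated.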

The next assay addresses T2, human recombinant HDAC1 (Homo sapiens, UniProt Q13547).
T2 construct: purchased Enzolifesciences BML-SE456
Briefly: HDAC1 enzyme activity inhibition (HDAC1 Fluorimetric Drug Discovery Assay Kit, in vitro). It counts as biochemical. The note with it: samples at 100, 1000 and 10000 nM. The gist of the method:
as §1

19 compounds from patent US20260125370A1, “SULFOXIMINE COMPOUNDS AS HISTONE DEACETYLASE 6 INHIBITOR, AND PHARMACEUTICAL COMPOSITION COMPRISING THE SAME” (CHONG KUN DANG PHARMACEUTICAL CORP., priority 2022, published 2026) can be followed below.

T2 sequence (Q13547 whole entry): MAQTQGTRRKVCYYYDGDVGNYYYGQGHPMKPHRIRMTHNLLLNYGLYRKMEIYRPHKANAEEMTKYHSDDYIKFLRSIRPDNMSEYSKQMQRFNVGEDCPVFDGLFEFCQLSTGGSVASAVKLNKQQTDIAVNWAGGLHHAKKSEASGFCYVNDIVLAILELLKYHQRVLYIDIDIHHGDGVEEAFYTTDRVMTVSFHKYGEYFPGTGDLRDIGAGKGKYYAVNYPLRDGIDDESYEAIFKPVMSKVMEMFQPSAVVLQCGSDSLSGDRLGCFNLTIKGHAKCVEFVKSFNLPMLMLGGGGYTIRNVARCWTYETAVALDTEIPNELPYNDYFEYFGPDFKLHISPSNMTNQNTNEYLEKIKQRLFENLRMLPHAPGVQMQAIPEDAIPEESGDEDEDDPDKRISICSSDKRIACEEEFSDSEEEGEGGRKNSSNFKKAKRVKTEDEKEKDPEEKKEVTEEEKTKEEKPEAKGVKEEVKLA

With `N=S1(=O)CCN(C(=O)N(Cc2ccc(-c3nnc(C(F)F)o3)cc2F)c2cccc(Br)c2)CC1` [Compound 41, N-(3-bromophenyl)-N-(4-(5-(difluoromethyl)-1,3,4-oxadiazol-2-yl)-2-fluorobenzyl)-1-iminothiomorpholin-4-carboxamide 1-oxide], the IC50 – broadly, the point on the concentration scale where inhibition reaches its midpoint – at human recombinant HDAC6 was 28.9 nM; at human recombinant HDAC1 it was above 10000 nM.
Take `N=S1(=O)CCN(S(=O)(=O)N(Cc2ccc(-c3nnc(C(F)F)o3)cc2F)c2cccc(F)c2)CC1` [Compound 35, N-(4-(5-(difluoromethyl)-1,3,4-oxadiazol-2-yl)-2-fluorobenzyl)-N-(3-fluorophenyl)-1-iminothiomorpholin-4-sulfonamide 1-oxide]: the IC50 was 59.7 nM on human recombinant HDAC6 and above 10000 nM on human recombinant HDAC1.
Taken in the same sequence, the figures for `N=S1(=O)CCN(S(=O)(=O)N(Cc2ncc(-c3nnc(C(F)F)o3)cc2F)c2ccc(F)cc2)CC1` [Compound 77, N-[[5-[5-(difluoromethyl)-1,3,4-oxadiazol-2-yl]-3-fluoro-2-pyridyl]methyl]-N-(4-fluorophenyl)-1-imino-1-oxo-1,4-thiazinan-4-sulfonamide] were 51.6 nM and above 10000 nM.
Taken in the same sequence, the figures for `N=S1(=O)CC(N2C[C@@H]3C[C@H]2CN3c2c(N(Cc3ccc(-c4nnc(C(F)F)o4)cc3F)c3ccccc3)c(=O)c2=O)C1` (stereo partly drawn) [Compound 89, 3-[N-[[4-[5-(difluoromethyl)-1,3,4-oxadiazol-2-yl]-2-fluoro-phenyl]methyl]anilino]-4-[(1S,4S)-5-(1-imino-1-oxo-thiethan-3-yl)-2,5-diazabicyclo[2.2.1]heptan-2-yl]cyclobut-3-en-1,2-dione] were 34.1 nM and above 10000 nM.
In the case of `N=S1(=O)CC(N2C[C@@H]3C[C@H]2CN3C(=O)N(Cc2ccc(-c3nnc(C(F)F)o3)cn2)c2ccccc2)C1` (stereo partly drawn) [Compound 84, (1S,4S)—N-[[5-[5-(difluoromethyl)-1,3,4-oxadiazol-2-yl]-2-pyridyl]methyl]-5-(1-imino-1-oxo-thiethan-3-yl)-N-phenyl-2,5-diazabicyclo[2.2.1]heptan-2-carboxamide], the figures for the IC50 on human recombinant HDAC6 and at human recombinant HDAC1 were 56 nM and above 10000 nM, respectively.
Consider `CC(=O)N=S1(=O)CCN(C(=O)N(Cc2ccc(-c3nnc(C(F)F)o3)cn2)c2ccc(F)c(F)c2)CC1` [Compound 30, 1-(acetylimino)-N-((5-(5-(difluoromethyl)-1,3,4-oxadiazol-2-yl)pyridin-2-yl)methyl)-N-(3,4-difluorophenyl)thiomorpholin-4-carboxamide 1-oxide], for which the IC50 at human recombinant HDAC6 was 54.6 nM; at human recombinant HDAC1, above 10000 nM.
As to `N=S1(=O)CCN(S(=O)(=O)N(Cc2ncc(-c3nnc(C(F)F)o3)s2)c2ccccc2)CC1` [Compound 86, N-[[5-[5-(difluoromethyl)-1,3,4-oxadiazol-2-yl]thiazol-2-yl]methyl]-1-imino-1-oxo-N-phenyl-1,4-thiazinan-4-sulfonamide], the values for the IC50 at human recombinant HDAC6 and at human recombinant HDAC1 were 50.2 nM and above 10000 nM, respectively.
Taken in the same sequence, the figures for `N=S1(=O)CCN(S(=O)(=O)N(Cc2ccc(-c3nnc(C(F)F)o3)cn2)c2ccccc2)CC1` [Compound 19, N-((5-(5-(difluoromethyl)-1,3,4-oxadiazol-2-yl)pyridin-2-yl)methyl)-1-imino-N-phenylthiomorpholin-4-sulfonamide 1-oxide] were 19.7 nM and above 10000 nM.
Regarding `CS(=N)(=O)c1ccc(N(Cc2ccc(-c3nnc(C(F)F)o3)cc2F)C(=O)N2CCS(=N)(=O)CC2)cc1` (centres unmarked) [Compound 11, N-(4-(5-(difluoromethyl)-1,3,4-oxadiazol-2-yl)-2-fluorobenzyl)-1-imino-N-(4-(S-methylsulfonimidoyl)phenyl)thiomorpholin-4-carboxamide 1-oxide], the results for the 50% inhibitory concentration (IC50) at human recombinant HDAC6 and at human recombinant HDAC1 were 1420 nM and above 10000 nM, respectively.
Taken in the same sequence, the figures for `COc1cccc(N(Cc2ccc(-c3nnc(C(F)F)o3)cn2)S(=O)(=O)N2CCS(=N)(=O)CC2)c1` [Compound 72, N-[[5-[5-(difluoromethyl)-1,3,4-oxadiazol-2-yl]-2-pyridyl]methyl]-1-imino-N-(3-methoxyphenyl)-1-oxo-1,4-thiazinan-4-sulfonamide] were 78.8 nM and above 10000 nM.
On to `CCOP(=O)(N=S1(=O)CCN(C(=O)N(Cc2ccc(-c3nnc(C(F)F)o3)cc2F)c2ccc(F)c(F)c2)CC1)OCC` [Compound 29, Diethyl (4-((4-(5-(difluoromethyl)-1,3,4-oxadiazol-2-yl)-2-fluorobenzyl)(3,4-difluorophenyl)carbamoyl)-1-oxidothiomorpholin-1-ylidene)phosphoramidate], for which the IC50 was 78.8 nM at human recombinant HDAC6 and above 10000 nM at human recombinant HDAC1.
`COc1ccc(N(Cc2ccc(-c3nnc(C(F)F)o3)cc2F)C(=O)N2CCS(=N)(=O)CC2)cc1` [Compound 27, N-(4-(5-(difluoromethyl)-1,3,4-oxadiazol-2-y1)-2-fluorobenzyl)-1-imino-N-(4-methoxyphenyl)thiomorpholin-4-carboxamide 1-oxide]: the figures for the IC50 on human recombinant HDAC6 and on human recombinant HDAC1 were 86.6 nM and above 10000 nM, respectively.
Regarding `N=S1(=O)CCC(N2C[C@@H]3C[C@H]2CN3C(=O)N(Cc2ccc(-c3nnc(C(F)F)o3)cn2)c2ccccc2F)CC1` (stereo partly drawn) [Compound 48, (1S,4S)—N-((5-(5-(difluoromethyl)-1,3,4-oxadiazol-2-yl)pyridin-2-yl)methyl)-N-(2-fluorophenyl)-5-(1-imino-1-oxidotetrahydro-2H-thiopyran-4-yl)-2,5-diazabicyclo[2.2.1]heptan-2-carboxamide], the figures for the IC50 on human recombinant HDAC6 and at human recombinant HDAC1 were 113 nM and above 10000 nM, respectively.
`N=S1(=O)C[C@@H]2C[C@H]1CN2C(=O)N(Cc1ccc(-c2nnc(C(F)F)o2)cc1F)c1ccccc1` (stereo partly drawn) [Compound 68, (1S,4S)—N-[[4-[5-(difluoromethyl)-1,3,4-oxadiazol-2-yl]-2-fluoro-phenyl]methyl]-2-imino-2-oxo-N-phenyl-2lambda6-thia-5-azabicyclo[2.2.1]heptan-5-carboxamide]: the concentration for half-maximal inhibition (IC50) on human recombinant HDAC6 is 39 nM; at human recombinant HDAC1, above 10000 nM.
Taken in the same sequence, the figures for `O=C(NC1CCS(=O)(=NC(=O)C(F)(F)F)CC1)N(Cc1ccc(-c2nnc(C(F)F)o2)cc1F)c1ccccc1` (centres unmarked) [Compound 58, N-(4-(3-(4-(5-(difluoromethyl)-1,3,4-oxadiazol-2-yl)-2-fluorobenzyl)-3-phenylureido)-1-oxidotetrahydro-2H-thiopyran-1-yliden)-2,2,2-trifluoroacetamide] were 256 nM and above 10000 nM.
As for `N=S1(=O)CCN(c2c(N(Cc3ccc(-c4nnc(C(F)F)o4)cc3F)c3ccccc3)c(=O)c2=O)CC1` [Compound 60, 3-((4-(5-(difluoromethyl)-1,3,4-oxadiazol-2-yl)-2-fluorobenzyl)(phenyl)amino)-4-(1-imino-1-oxidothiomorpholino)cyclobut-3-en-1,2-dione], the IC50 on human recombinant HDAC6 is 26.7 nM; on human recombinant HDAC1, above 10000 nM.
Consider `CN=S1(=O)CCN(C(=O)N(Cc2ccc(-c3nnc(C(F)F)o3)cc2F)c2ccccc2)CC1` [Compound 39, N-(4-(5-(difluoromethyl)-1,3,4-oxadiazol-2-yl)-2-fluorobenzyl)-1-(methylimino)-N-phenylthiomorpholin-4-carboxamide 1-oxide], for which the IC50 is 80.8 nM on human recombinant HDAC6 and above 10000 nM at human recombinant HDAC1.
For `N=S1(=O)CCN(C(=O)N(Cc2ccc(-c3nnc(C(F)F)o3)cc2F)c2ccc(Br)cc2)CC1` [Compound 20, N-(4-bromophenyl)-N-(4-(5-(difluoromethyl)-1,3,4-oxadiazol-2-yl)-2-fluorobenzyl)-1-iminothiomorpholin-4-carboxamide 1-oxide], the IC50 on human recombinant HDAC6 is 76.7 nM; on human recombinant HDAC1, above 10000 nM.
With `N=S1(=O)CCN(S(=O)(=O)N(Cc2ccc(-c3nnc(C(F)F)o3)cn2)c2cccc(Cl)c2)CC1` [Compound 71, N-(3-chlorophenyl)-N-[[5-[5-(difluoromethyl)-1,3,4-oxadiazol-2-yl]-2-pyridyl]methyl]-1-imino-1-oxo-1,4-thiazinan-4-sulfonamide], the 50% inhibitory concentration (IC50) at human recombinant HDAC6 is 31.7 nM; on human recombinant HDAC1 it was above 10000 nM.
